Assays:
in vivo effect = settings: % of control @ 30 mg/kg p.o.
CYP2C9 = target: T1, CYP2C9 (Homo sapiens, UniProt P11712); experiment: CYP inhibition assay, CYP2C9; type: in vitro ADME; settings: human liver microsomes, diclofenac 4' hydroxylase; read-out: CYP IC50 2C9
T1 construct: 0.2 mg/ml pooled human liver microsomes; from tissue; host or cells: pooled human liver microsomes
Description: Inhibition of cytochromes P450 (CYPs) 2C9, 2D6 and 3A4 was assessed using human liver microsomes and CYP-selective substrate metabolism reactions. 50 μl incubations were made up containing (finally) 0.2 mg/ml pooled human liver microsomes, 5 μM substrate (diclofenac for CYP2C9 [4′ hydroxylase], dextromethorphan for CYP2D6 [O-demethylase] or midazolam for CYP3A4 [1′ hydroxylase]), 0.25 μL DMSO containing test inhibitor and NADPH regenerating system. Test inhibitor concentrations of 50, 16.7, 5.6, 1.9, 0.6 and 0.2 μM were assessed in singlicate. Incubations were pre-warmed to 37° C. for 10 minutes before initiation by addition of NADPH regenerating system. Incubations were quenched after 5 minutes (20 minutes for dextromethorphan) by addition of 50 μl cold acetonitrile containing 20 ng/ml 4-OH-diclofenac-13C6, 20 ng/mL dextrorphan-D3 and 20 ng/mL 1-OH-midazolam-D4. Quenched incubates were stored at −20° C. for at least 1 hour before centrifugation (20,000×g, 20 minutes). Supernatants were removed and diluted 1:1 with water prior to analysis using a RapidFire sample injector system and API4000 mass spectrometer. Peak areas for substrate, metabolite and stable-labelled metabolite standard were determined using MS/MS. The peak area ratios between the metabolite generated by the enzymatic reaction and the internal standard were used in subsequent calculations. The percentage of (DMSO) control activity was calculated for each incubate and IC50 values estimated by non-linear regression. Sulfaphenazole, quinidine or ketoconazole were tested in each CYP2C9, CYP2D6 or CYP3A4 inhibition experiment, respectively, to ensure assay sensitivity and reproducibility. (Validated assays for human cytochrome P450 activities, R. L. Walsky and R. S. Obach, Drug Metabolism and Disposition 32: 647-660, 2004. and S. Fowler and H. Zhang, The AAPS Journal, Vol. 10, No. 2, 410-424, 2008.)

T1 sequence (P11712 whole entry): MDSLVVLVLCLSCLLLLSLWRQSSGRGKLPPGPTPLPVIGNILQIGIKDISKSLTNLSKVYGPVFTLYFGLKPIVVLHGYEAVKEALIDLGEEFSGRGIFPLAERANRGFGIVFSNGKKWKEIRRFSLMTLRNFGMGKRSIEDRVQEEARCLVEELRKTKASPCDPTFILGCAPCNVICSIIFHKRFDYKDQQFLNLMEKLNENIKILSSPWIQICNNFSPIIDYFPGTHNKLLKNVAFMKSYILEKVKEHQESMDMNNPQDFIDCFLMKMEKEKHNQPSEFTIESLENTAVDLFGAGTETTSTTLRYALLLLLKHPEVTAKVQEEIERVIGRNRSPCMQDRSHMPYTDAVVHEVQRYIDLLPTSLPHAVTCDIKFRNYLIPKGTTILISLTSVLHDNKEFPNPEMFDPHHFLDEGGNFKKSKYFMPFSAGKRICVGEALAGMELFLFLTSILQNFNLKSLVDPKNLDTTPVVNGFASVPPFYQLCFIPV

Row | IC50 (CYP2C9) | SMILES | in vivo effect (in vivo effect)
1 | > 10 µM | N#Cc1ccc(C(=O)Nc2ccc(F)c([C@@]3(C(F)F)N=C(N)O[C@@H]4CC(F)(F)C[C@@H]43)c2)nc1 [Example 36, 5-Cyano-pyridine-2-carboxylic acid [(S)-3-((1R,2R)-2-amino-4-difluoromethyl-6,6-difluoro-4,4a,5,6,7,7a-hexahydro-cyclopenta[e][1,3]oxazin-4-yl)-4-fluoro-phenyl]-amide] | A (less than 50% of control @ 30 mg/kg p.o.)
2 | > 10 µM | COc1cnc(C(=O)Nc2ccc(F)c([C@@]3(C(F)F)N=C(N)O[C@@H]4CC(F)(F)C[C@@H]43)c2)cn1 [Example 42, 5-Methoxy-pyrazine-2-carboxylic acid [(S)-3-((1R,2R)-2-amino-4-difluoromethyl-6,6-difluoro-4,4a,5,6,7,7a-hexahydro-cyclopenta[e][1,3]oxazin-4-yl)-4-fluoro-phenyl]-amide] | A (less than 50% of control @ 30 mg/kg p.o.)
3 | > 10 µM | N#Cc1ccc(C(=O)Nc2ccc(F)c([C@@]3(CF)N=C(N)O[C@@H]4CC(F)(F)C[C@@H]43)c2)nc1 [Example 3, 5-Cyano-pyridine-2-carboxylic acid [(S)-3-((1R,2R)-2-amino-6,6-difluoro-4-fluoromethyl-4,4a,5,6,7,7a-hexahydro-cyclopenta[e][1,3]oxazin-4-yl)-4-fluoro-phenyl]-amide] | A (less than 50% of control @ 30 mg/kg p.o.)
4 | > 10 µM | NC1=N[C@](CF)(c2cc(NC(=O)c3ccc(F)cn3)ccc2F)[C@H]2CC(F)(F)C[C@H]2O1 [Example 7, 5-Fluoro-pyridine-2-carboxylic acid [(S)-3-((1R,2R)-2-amino-6,6-difluoro-4-fluoromethyl-4,4a,5,6,7,7a-hexahydro-cyclopenta[e][1,3]oxazin-4-yl)-4-fluoro-phenyl]-amide] | A (less than 50% of control @ 30 mg/kg p.o.)
5 | > 10 µM | NC1=N[C@](CF)(c2cc(NC(=O)c3cnc(C(F)F)cn3)ccc2F)[C@H]2CC(F)(F)C[C@H]2O1 [Example 24, 5-Difluoromethyl-pyrazine-2-carboxylic acid [(S)-3-((1R,2R)-2-amino-6,6-difluoro-4-fluoromethyl-4,4a,5,6,7,7a-hexahydro-cyclopenta[e][1,3]oxazin-4-yl)-4-fluoro-phenyl]-amide] | A (less than 50% of control @ 30 mg/kg p.o.)
